Source: patent US20170190671A1, “BIS(ARYL)CATECHOL DERIVATIVES AS HERBICIDES” (E I DU PONT DE NEMOURS AND COMPANY, priority 2014, published 2017)

Key:
[1] = system: wheat (Triticum aestivum); assay: Test A preemergence; assay type: in vivo
Procedure, shortened: (§1)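 Compounds in non-phytotoxic solvent with surfactant applied as soil spray preemergence, or postemergence to plants 2-10 cm at one- to two-leaf stage, in loam/sand. After approximately 10 days in greenhouse, injury rated visually versus untreated controls, 0 (no effect) to 100 (complete control).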

[2] = system: velvetleaf (Abutilon theophrasti); assay: Test A preemergence; assay type: in vivo
Procedure, shortened: as §1

[3] = system: morningglory (Ipomoea spp.); assay: Test A preemergence; assay type: in vivo
Procedure, shortened: as §1

corn (Zea mays) = assay: Test A preemergence; assay type: in vivo; settings: 0 to 100 scale
Procedure, shortened: as §1

[4] = system: large (Lg) crabgrass (Digitaria sanguinalis); assay: Test A preemergence; assay type: in vivo
Procedure, shortened: as §1

[5] = system: velvetleaf (Abutilon theophrasti); assay: Test A postemergence; assay type: in vivo; settings: 0 to 100 scale
Procedure, shortened: as §1

[6] = system: morningglory (Ipomoea spp.); assay: Test A postemergence; assay type: in vivo; settings: 0 to 100 scale
Procedure, shortened: as §1

[7] = system: large (Lg) crabgrass (Digitaria sanguinalis); assay: Test A postemergence; assay type: in vivo; settings: 0 to 100 scale
Procedure, shortened: as §1

wild oat (Avenafatua) = assay: Test D preemergence; assay type: in vivo, Avena fatua; settings: scale 0 to 100
Text: Seeds of plant species selected from bluegrass (annual bluegrass, Poa annua), blackgrass (Alopecurus myosuroides), canarygrass (Phalaris minor), chickweed (common chickweed, Stellaria media), cutleaf geranium (Geranium dissectum), galium (catchweed bedstraw, Galium aparine), downy bromegrass (Bromus tectorum), field poppy (Papaver rhoeas), field violet (Viola arvensis), green foxtail (Setaria viridis), deadnettle (henbit deadnettle, Lamium amplexicaule), Italian ryegrass (Lolium multiflorum), kochia (Kochia scoparia), lambsquarters (Chenopodium album), oilseed rape (Brassica napus), pigweed (Amaranthus retroflexus), chamomile (scentless chamomile, Matricaria inodora), Russian thistle (Salsola kali), speedwell (bird's-eye speedwell, Veronica persica), spring barley (Hordeum vulgare), spring wheat (Triticum aestivum), wild buckwheat (Polygonum convolvulus), wild mustard (Sinapis arvensis), wild oat (Avenafatua), wild radish (Raphanus raphanistrum), windgrass (Apera spica-venti), winter barley (Hordeum vulgare), and winter wheat (Triticum aestivum) were planted into a silt loam soil and treated preemergence with test chemicals formulated in a non-phytotoxic solvent mixture which included a surfactant.
At the same time, these species were planted in pots containing Redi-Earth® planting medium (Scotts Company, 14111 Scottslawn Road, Marysville, Ohio 43041) comprising spaghnum peat moss, vermiculite, wetting agent and starter nutrients and treated with postemergence applications of the test chemicals formulated in the same manner. Plants ranged in height from 2 to 18 cm (1- to 4-leaf stage). Treated plants and controls were maintained in a controlled growth environment for 14 to 21 days after which time all species were compared to controls and visually evaluated. Plant response ratings, summarized in Table D, are based on a scale of 0 to 100 where 0 is no effect and 100 is complete control. A dash (-) response means no test result.

[8] = system: lambsquarters (Chenopodium album); assay: Test D preemergence; assay type: in vivo; settings: scale 0 to 100
Procedure, shortened: (§2)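 Visual injury scored 0–100 (0 = no effect, 100 = complete control) against controls 14 to 21 days after treatment in a controlled growth environment. Compounds were applied in surfactant-containing non-phytotoxic solvent, preemergence onto silt loam-sown seeds or postemergence onto 1- to 4-leaf plants.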

[9] = system: cutleaf geranium (Geranium dissectum); assay: Test D preemergence; assay type: in vivo; settings: scale 0 to 100
Procedure, shortened: as §2

[10] = system: winter wheat (Triticum aestivum); assay: Test D preemergence; assay type: in vivo; settings: scale 0 to 100
Procedure, shortened: as §2

[11] = system: wild radish (Raphanus raphanistrum); assay: Test D preemergence; assay type: in vivo; settings: scale 0 to 100
Procedure, shortened: as §2

[12] = system: green foxtail (Setaria viridis); assay: Test D preemergence; assay type: in vivo; settings: scale 0 to 100
Procedure, shortened: as §2

[13] = system: Russian thistle (Salsola kali); assay: Test D preemergence; assay type: in vivo; settings: scale 0 to 100
Procedure, shortened: as §2

[14] = system: chamomile (scentless chamomile, Matricaria inodora); assay: Test D preemergence; assay type: in vivo; settings: scale 0 to 100
Procedure, shortened: as §2

[15] = system: field violet (Viola arvensis); assay: Test D preemergence; assay type: in vivo; settings: scale 0 to 100
Procedure, shortened: as §2

[16] = 125 g ai/ha, 0 to 100 scale (0 no effect, 100 complete control)

Fc1cccc(Oc2ncc(Cl)cn2)c1Oc1ncc(Cl)cn1 [Compound 21, 2,2′-[[3-fluoro-1,2-phenylene]bis(oxy)]bis[5-chloropyrimidine]]
Wheat plant response rating [1, 16]: 60 | Plant response rating, Wheat ([1]; 500 g ai/ha, 0 to 100 scale): 60 | Velvetleaf plant response rating [2, 16]: 80 | Plant response rating, Velvetleaf ([2]; 500 g ai/ha, 0 to 100 scale): 90 | Morningglory plant response rating [3, 16]: 90 | Plant response rating, Morningglory ([3]; 500 g ai/ha, 0 to 100 scale): 100 | Plant response rating, Corn (corn (Zea mays); 125 g ai/ha): 40 | Plant response rating, Corn (corn (Zea mays); 500 g ai/ha): 60 | Crabgrass, Large plant response rating [4, 16]: 100 | Plant response rating, Crabgrass, Large ([4]; 500 g ai/ha, 0 to 100 scale): 100 | Plant response rating, Velvetleaf ([5]; 125 g ai/ha): 90 | Plant response rating, Velvetleaf ([5]; 500 g ai/ha): 100 | Plant response rating, Morningglory ([6]; 125 g ai/ha): 90 | Plant response rating, Morningglory ([6]; 500 g ai/ha): 100 | Plant response rating, Crabgrass, Large ([7]; 125 g ai/ha): 80 | Plant response rating, Crabgrass, Large ([7]; 500 g ai/ha): 90

Fc1cnc(Oc2c(F)cccc2Oc2ncc(Cl)cn2)nc1 [Compound 23]
Plant response rating, Oat, Wild (wild oat (Avenafatua); 16 g ai/ha): 5 | Plant response rating, Oat, Wild (wild oat (Avenafatua); 31 g ai/ha): 15 | Plant response rating, Oat, Wild (wild oat (Avenafatua); 62 g ai/ha): 70 | Plant response rating, Oat, Wild (wild oat (Avenafatua); 125 g ai/ha): 98 | Plant response rating, Lambsquarters ([8]; 16 g ai/ha): 25 | Plant response rating, Lambsquarters ([8]; 31 g ai/ha): 100 | Plant response rating, Lambsquarters ([8]; 62 g ai/ha): 100 | Plant response rating, Lambsquarters ([8]; 125 g ai/ha): 100 | Plant response rating, Geranium, Cutleaf ([9]; 16 g ai/ha): 25 | Plant response rating, Geranium, Cutleaf ([9]; 31 g ai/ha): 100 | Plant response rating, Geranium, Cutleaf ([9]; 62 g ai/ha): 100 | Plant response rating, Geranium, Cutleaf ([9]; 125 g ai/ha): 100 | Plant response rating, Wheat, Winter ([10]; 16 g ai/ha): 0 | Plant response rating, Wheat, Winter ([10]; 31 g ai/ha): 5 | Plant response rating, Wheat, Winter ([10]; 62 g ai/ha): 10 | Plant response rating, Wheat, Winter ([10]; 125 g ai/ha): 70 | Plant response rating, Radish, Wild ([11]; 16 g ai/ha): 25 | Plant response rating, Radish, Wild ([11]; 31 g ai/ha): 70 | Plant response rating, Radish, Wild ([11]; 62 g ai/ha): 90 | Plant response rating, Radish, Wild ([11]; 125 g ai/ha): 100 | Plant response rating, Foxtail, Green ([12]; 16 g ai/ha): 0 | Plant response rating, Foxtail, Green ([12]; 31 g ai/ha): 5 | Plant response rating, Foxtail, Green ([12]; 62 g ai/ha): 55 | Plant response rating, Foxtail, Green ([12]; 125 g ai/ha): 100 | Plant response rating, Russian Thistle ([13]; 16 g ai/ha): 0 | Plant response rating, Russian Thistle ([13]; 31 g ai/ha): 0 | Plant response rating, Russian Thistle ([13]; 62 g ai/ha): 5 | Plant response rating, Russian Thistle ([13]; 125 g ai/ha): 5 | Plant response rating, Chamomile ([14]; 16 g ai/ha): 20 | Plant response rating, Chamomile ([14]; 31 g ai/ha): 75 | Plant response rating, Chamomile ([14]; 62 g ai/ha): 75 | Plant response rating, Chamomile ([14]; 125 g ai/ha): 100 | Plant response rating, Field Violet ([15]; 16 g ai/ha): 25 | Plant response rating, Field Violet ([15]; 31 g ai/ha): 25 | Plant response rating, Field Violet ([15]; 62 g ai/ha): 95 | Plant response rating, Field Violet ([15]; 125 g ai/ha): 100

FC(F)(F)c1cnc(Oc2c(Br)cccc2Oc2ncc(Cl)cn2)nc1 [Compound 24]
Plant response rating, Oat, Wild (wild oat (Avenafatua); 16 g ai/ha): 0 | Plant response rating, Oat, Wild (wild oat (Avenafatua); 31 g ai/ha): 15 | Plant response rating, Oat, Wild (wild oat (Avenafatua); 62 g ai/ha): 25 | Plant response rating, Oat, Wild (wild oat (Avenafatua); 125 g ai/ha): 75 | Plant response rating, Lambsquarters ([8]; 16 g ai/ha): 100 | Plant response rating, Lambsquarters ([8]; 31 g ai/ha): 100 | Plant response rating, Lambsquarters ([8]; 62 g ai/ha): 100 | Plant response rating, Lambsquarters ([8]; 125 g ai/ha): 100 | Plant response rating, Geranium, Cutleaf ([9]; 16 g ai/ha): 75 | Plant response rating, Geranium, Cutleaf ([9]; 31 g ai/ha): 75 | Plant response rating, Geranium, Cutleaf ([9]; 62 g ai/ha): 90 | Plant response rating, Geranium, Cutleaf ([9]; 125 g ai/ha): 100 | Plant response rating, Wheat, Winter ([10]; 16 g ai/ha): 0 | Plant response rating, Wheat, Winter ([10]; 31 g ai/ha): 0 | Plant response rating, Wheat, Winter ([10]; 62 g ai/ha): 0 | Plant response rating, Wheat, Winter ([10]; 125 g ai/ha): 10 | Plant response rating, Radish, Wild ([11]; 16 g ai/ha): 0 | Plant response rating, Radish, Wild ([11]; 31 g ai/ha): 20 | Plant response rating, Radish, Wild ([11]; 62 g ai/ha): 45 | Plant response rating, Radish, Wild ([11]; 125 g ai/ha): 70 | Plant response rating, Foxtail, Green ([12]; 16 g ai/ha): 10 | Plant response rating, Foxtail, Green ([12]; 31 g ai/ha): 35 | Plant response rating, Foxtail, Green ([12]; 62 g ai/ha): 75 | Plant response rating, Foxtail, Green ([12]; 125 g ai/ha): 85 | Plant response rating, Russian Thistle ([13]; 16 g ai/ha): 0 | Plant response rating, Russian Thistle ([13]; 31 g ai/ha): 0 | Plant response rating, Russian Thistle ([13]; 62 g ai/ha): 35 | Plant response rating, Russian Thistle ([13]; 125 g ai/ha): 80 | Plant response rating, Chamomile ([14]; 16 g ai/ha): 55 | Plant response rating, Chamomile ([14]; 31 g ai/ha): 100 | Plant response rating, Chamomile ([14]; 62 g ai/ha): 100 | Plant response rating, Chamomile ([14]; 125 g ai/ha): 100 | Plant response rating, Field Violet ([15]; 16 g ai/ha): 20 | Plant response rating, Field Violet ([15]; 31 g ai/ha): 20 | Plant response rating, Field Violet ([15]; 62 g ai/ha): 75 | Plant response rating, Field Violet ([15]; 125 g ai/ha): 100
